In patent US5925633A, “3-Substituted-4-oxa-1-azabicyclo [3,2,0]heptan-7-one as cysteine protease inhibitors” (Synphar Laboraties, Inc., priority 1996, dated 1999):
Where two headings read alike, the source gives them in different places.

Assays:
[1] = target: cathepsin B (Rattus norvegicus, UniProt P00787); assay: In vitro assay procedure for cathepsin B (inhibition); format: biochemical; settings: rat cathepsin B, pH 5.1, 10 min incubation at room temperature, substrate N-CBZ-Phe-Arg-AMC; read-out: IC50 Cathepsin B
Protocol: The compounds of formula I were tested for inhibition of cathepsin B using the known method (A. J. Barret et al., Biochem. J. 1982, 201, 189-198). […] After 10 min of incubation at room temperature, a 20 μl of 5 mM substrate (N-CBZ-Phe-Arg-AMC, dissolved in DMSO) was added to initiate reaction. Reading is followed up for 10 min at the fluoroscan reader (excitation at 380 nm, emission at 460 nm).

[2] = target: T1, papain (Carica papaya, UniProt P00784); assay: In vitro assay procedure for papain (inhibition); format: biochemical
T1 sequence (P00784 134-345): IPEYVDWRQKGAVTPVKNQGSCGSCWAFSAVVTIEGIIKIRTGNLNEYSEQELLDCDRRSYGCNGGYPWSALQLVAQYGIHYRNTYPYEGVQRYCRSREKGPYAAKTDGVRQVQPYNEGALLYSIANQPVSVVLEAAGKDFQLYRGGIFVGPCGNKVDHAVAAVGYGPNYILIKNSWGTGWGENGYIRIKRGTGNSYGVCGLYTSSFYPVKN
Protocol: To a 170 μl of enzyme-buffer mixture (enzyme: papain, diluted to give 30 mOD/min, buffer: 0.2 M potassium phosphate, 1.0 mM EDTA, 5 mM L-Cysteine, pH 6.5) a 10 μL of inhibitor (dissolved in DMSO) was added. After 10 min of incubation at room temperature, a 20 μl of 10 mM substrate (N-CBZ-Pro-Phe-Arg-pNA, dissolved in DMSO) was added to initiate reaction. Reading is followed up for 3 min at the Thermomax plate reader (absorbance at 405 nm)
A plot of percentage of inhibition vs inhibitor concentration is obtained, and IC50 is determined using a linear regression calculations (concentration of inhibitor which will give 50% inhibition).

[3] = pH 6.5, 10 min incubation at room temperature, substrate N-CBZ-Pro-Phe-Arg-pNA, read-out: IC50 Papain

Chain of cathepsin B (P00787 80-339): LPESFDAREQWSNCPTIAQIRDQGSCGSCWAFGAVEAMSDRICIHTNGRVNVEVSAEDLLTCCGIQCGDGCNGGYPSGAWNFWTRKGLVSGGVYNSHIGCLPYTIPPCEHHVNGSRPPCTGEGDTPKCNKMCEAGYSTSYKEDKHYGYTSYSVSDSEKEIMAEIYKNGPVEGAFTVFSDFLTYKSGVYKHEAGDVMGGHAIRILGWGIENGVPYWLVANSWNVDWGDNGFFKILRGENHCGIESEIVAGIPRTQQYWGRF

| Compound | IC50 [1] [nM] | IC50 [2, 3] [nM] | IC50 [2] [nM] |
| --- | --- | --- | --- |
| O=C(O)c1ccccc1C(=O)OCC1CN2C(=O)CC2O1 (centres unmarked) [Example 64] | 6900 | 16000 | – |
| O=C(OCC1CN2C(=O)CC2O1)c1ccc2c(c1)C(=O)c1ccccc1C2=O (centres unmarked) [Example 46] | 530 | 21 | – |
| CC(N)C(=O)OCC1CN2C(=O)CC2O1 (centres unmarked) [Example 25] | > 20000 | 3310 | – |
| COc1ccc(C(=O)OCC2CN3C(=O)CC3O2)cc1OC (centres unmarked) [Example 51] | 3300 | 130 | – |
| CC(=O)OCC1CN2C(=O)CC2O1 (centres unmarked) [Example 44] | 1100 | 210 | – |
| O=C1CC2OC(CNC(=O)C(F)(F)F)CN12 (centres unmarked) [Example 28] | 330 | 840 | – |
| O=COCCCCCC(=O)NCC1CN2C(=O)CC2O1 (centres unmarked) [Example 38] | 3500 | 2200 | – |
| O=C(CC1CN2C(=O)CC2O1)OC(c1ccccc1)c1ccccc1 (centres unmarked) [Example 18, diphenylmethyl 2-(7-oxo-4-oxa-1-azabicyclo [3,2,0]heptan-3-yl)-acetate] | 2970 | 2080 | – |
| Cc1ccc(S(=O)(=O)NCC2CN3C(=O)CC3O2)cc1 (centres unmarked) [Example 56] | 670 | 1760 | – |
| CC[C@H](C)[C@H](NC(=O)OCc1ccccc1)C(=O)N1CCC[C@H]1C(=O)OC[C@H]1CN2C(=O)C[C@@H]2O1 (mixture of isomers) [Example 8, (3RS, 5SR)-3-{N-(benzyloxycarbonyl)-L-isoleucyl-L-prolyl}-oxymethyl-4-oxa-1-azabicyclo [3,2,0] heptan-7-one] | 4500 | 740 | – |
| O=C(NCC1CN2C(=O)CC2O1)C1CCCCC1 (centres unmarked) [Example 75] | 360 | 3970 | – |
| O=C(CO)NCC1CN2C(=O)CC2O1 (centres unmarked) [Example 45] | 5000 | 1690 | – |
| N#Cc1ccc(C(=O)OCC2CN3C(=O)CC3O2)cc1 (centres unmarked) [Example 55] | 3700 | 740 | – |
| O=C(N[C@@H](Cc1ccccc1)C(=O)NCC1CN2C(=O)CC2O1)OCc1ccccc1 (some centres unmarked) [Example 23] | 2400 | 350 | – |
| Cn1c2nc(=O)[nH]c(=O)c-2nc2cc(C(=O)OC[C@H]3CN4C(=O)C[C@@H]4O3)ccc21 (relative stereo) [Example 14, (3RS, 5SR)-3-(10-methylisoalloxazin-7-yl)-carbonyloxy methyl-4-oxa-1-azabicyclo [3,2,0] heptan-7-one] | 16900 | 760 | – |
| O=C(OC[C@H]1CN2C(=O)C[C@@H]2O1)C1CCCCC1 (racemic) [Example 11, (3RS,5SR)-3-(cyclohexanecarbonyloxymethyl)-4-oxa-1-azabicyclo [3,2,0] heptan-7-one] | 790 | 1000 | – |
| O=C(NC(CO)C(=O)OCC1CN2C(=O)CC2O1)OCc1ccccc1 (centres unmarked) [Example 69] | 2700 | 1500 | – |
| NC(CC(=O)O)C(=O)NCC(=O)NCC1CN2C(=O)CC2O1 (centres unmarked) [Example 40] | 15900 | 8300 | – |
| O=C(NCC1CN2C(=O)CC2O1)c1ccccc1 (centres unmarked) [Example 58] | 4100 | 810 | – |
| O=C(OCC1CN2C(=O)CC2O1)c1ccccc1 (centres unmarked) [Example 60] | 4000 | 4000 | – |
| O=C(O)C[S+]([O-])CC1CN2C(=O)CC2O1 (centres unmarked) [Example 29] | 380 | 3900 | – |
| O=C(CNC(=O)[C@H](Cc1ccccc1)NC(=O)OCc1ccccc1)OC[C@H]1CN2C(=O)C[C@@H]2O1 (mixture of isomers) [Example 7, (3RS,5SR)-3-{N-(benzyloxycarbonyl)-L-phenylalanyl-glycyl}-oxymethyl-4-oxa-1-azabicyclo [3,2,0] heptan-7-one] | 3110 | 3510 | – |
| CC(=O)NCC(=O)NCC1CN2C(=O)CC2O1 (centres unmarked) [Example 31] | 2600 | 4100 | – |
| O=C(NC(c1ccccc1)C(O)C(=O)OCC1CN2C(=O)CC2O1)c1ccccc1 (centres unmarked) [Example 71] | 240 | 240 | – |
| Cc1c(C(=O)OC[C@H]2CN3C(=O)C[C@@H]3O2)c(=O)[nH]c2ccccc12 (relative stereo) [Example 10, (3RS, 5SR)-3-(1,2-dihydro-4-methyl-2-oxo-guinolin-3-yl)-carbonyloxymethyl-4-oxa-1-azabicyclo [3,2,0] heptan-7-one] | 3050 | 140 | – |
| COc1ccc(C(=O)OCC2CN3C(=O)CC3O2)cc1 (centres unmarked) [Example 65] | 8900 | 2000 | – |
| O=C1CC(OCC2CN3C(=O)CC3O2)N1 (centres unmarked) [Example 73] | 4700 | 2400 | – |
| CC(C)C(=O)NCC1CN2C(=O)CC2O1 (centres unmarked) [Example 30] | 460 | 950 | – |

| Compound | IC50 [1] [nM] | IC50 [2, 3] [nM] | IC50 [2] [nM] |
| --- | --- | --- | --- |
| O=C1CC2OC(CSc3ccccc3)CN12 (centres unmarked) [Example 48] | 420 | 850 | – |
| CCCCCCCCCCCCCCCC(=O)OCC1CN2C(=O)CC2O1 (centres unmarked) [Example 36] | > 50000 | > 50000 | – |
| CC(=O)NC[C@H]1CN2C(=O)C[C@@H]2O1 [Example 3, (3S,5S)-3-(N-acetylamino)methyl-4-oxa-1-azabicyclo [3,2,0] heptan-7-one] | 560 | 590 | – |
| COc1ccc(C(=O)NCC2CN3C(=O)CC3O2)cc1OC (centres unmarked) [Example 47] | 8800 | 130 | – |
| CC(=O)NCC[S+]([O-])CC1CN2C(=O)CC2O1 (centres unmarked) [Example 34] | 14600 | 3800 | – |
| NCC1CN2C(=O)CC2O1 (centres unmarked) [Example 39] | 5500 | 5500 | – |
| COc1ccc(C(=O)NCC2CN3C(=O)CC3O2)cc1 (centres unmarked) [Example 68] | 3600 | 720 | – |
| O=C(CNC(=O)OCc1ccccc1)NCC(=O)OCC1CN2C(=O)CC2O1 (centres unmarked) [Example 70] | 6700 | 350 | – |
| O=C(OCC1CN2C(=O)CC2O1)c1cc(F)c(F)cc1F (centres unmarked) [Example 54] | 8300 | 660 | – |
| O=C(OC[C@H]1CN2C(=O)C[C@@H]2O1)C1CCCC1 (racemic) [Example 12, (3RS,5SR)-3-(cyclopentanecarbonyloxymethyl)-4-oxa-1-azabicyclo [3,2,0] heptan-7-one] | 660 | 1130 | – |
| O=C1C[C@@H]2O[C@@H](Cn3ccnn3)CN12 [Example 17, (3R,5S)-3-(1,2,3-triazol-1-yl)-methyl-4-oxa-1-azabicyclo [3,2,0] heptan-7-one] | 290 | – | 290 |
| NC(CC(=O)O)C(=O)OCC1CN2C(=O)CC2O1 (centres unmarked) [Example 22] | > 20000 | > 20000 | – |
| O=C(OCC1CN2C(=O)CC2O1)c1ccc(F)cc1 (centres unmarked) [Example 66] | 3800 | 2400 | – |
| O=C(CCl)NCC1CN2C(=O)CC2O1 (centres unmarked) [Example 27] | 400 | 900 | – |
| COc1ccc(S(=O)(=O)NCC2CN3C(=O)CC3O2)cc1 (centres unmarked) [Example 59] | 640 | 3200 | – |
| CC[C@H](C)[C@H](NC(=O)OCc1ccccc1)C(=O)OC[C@H]1CN2C(=O)C[C@@H]2O1 (mixture of isomers) [Example 6, (3RS,5SR) -3-{N-(benzyloxycarbonyl)-L-isoleucyl}-oxymethyl-4-oxa-1-azabicyclo [3,2,0] heptan-7-one] | 510 | 380 | – |
| CC(C)C[C@H](NC(=O)OCc1ccccc1)C(=O)N1CCC[C@H]1C(=O)OC[C@H]1CN2C(=O)C[C@@H]2O1 (mixture of isomers) [Example 9, (3RS, 5SR)-3-{N-(benzyloxycarbonyl)-L-leucyl-L-prolyl}-oxymethyl-4-oxa-1-azabicyclo [3,2,0] heptan-7-one] | 2900 | 2050 | – |
| O=C1CC2OC(CNS(=O)(=O)c3ccc(Cl)cc3)CN12 (centres unmarked) [Example 57] | 630 | 630 | – |
| O=C(OCC1CN2C(=O)CC2O1)c1ccc(O)c(O)c1 (centres unmarked) [Example 50] | 460 | 2500 | – |
| O=C1C[C@@H]2O[C@@H](CO)CN12 [Example 2, (3R, 5S)-3-hydroxymethyl-4-oxa-1-azabicyclo[3,2,0] heptan-7-one] | 5000 | 2030 | – |
| O=C(N[C@@H](Cc1ccccc1)C(=O)OC[C@H]1CN2C(=O)C[C@@H]2O1)OCc1ccccc1 (mixture of isomers) [Example 4, (3RS,5SR)-3-{N-(benzyloxycarbonyl)-L-phenylalanyl}-oxymethyl-4-oxa-1-azabicyclo [3,2,0] heptan-7-one] | 590 | 240 | – |
| NC(CC(=O)O)C(=O)NCC1CN2C(=O)CC2O1 (centres unmarked) [Example 21] | 12600 | > 20000 | – |
| CCCCCC(=O)NCC1CN2C(=O)CC2O1 (centres unmarked) [Example 32] | 2300 | 2300 | – |
| CC(=O)NCCCCC(NC(C)=O)C(=O)OCC1CN2C(=O)CC2O1 (centres unmarked) [Example 43] | > 70000 | 1770 | – |
| O=C(O)C=CC(=O)OCC1CN2C(=O)CC2O1 (centres unmarked) [Example 37] | 1900 | 19000 | – |
| O=C(O)CS(=O)(=O)CC1CN2C(=O)CC2O1 (centres unmarked) [Example 35] | 740 | 12900 | – |
| CC(N)C(=O)NCC1CN2C(=O)CC2O1 (centres unmarked) [Example 26] | > 20000 | 2910 | – |
